# Assay results as given in patent publication US20090143283A1, “Pituitary Adenylate Cyclase Activating Peptide (PACAP) Receptor (VPAC2) Agonists and Their Pharmacological Methods of Use” (Bayer Pharmaceuticals Corporation, priority 2004, published 2009).
# Biological target: T1, VPAC1 (Homo sapiens, UniProt P32241)
# T1 construct: expressed in transfected cells; host or cells: CHO
# T1 sequence (P32241 31-457): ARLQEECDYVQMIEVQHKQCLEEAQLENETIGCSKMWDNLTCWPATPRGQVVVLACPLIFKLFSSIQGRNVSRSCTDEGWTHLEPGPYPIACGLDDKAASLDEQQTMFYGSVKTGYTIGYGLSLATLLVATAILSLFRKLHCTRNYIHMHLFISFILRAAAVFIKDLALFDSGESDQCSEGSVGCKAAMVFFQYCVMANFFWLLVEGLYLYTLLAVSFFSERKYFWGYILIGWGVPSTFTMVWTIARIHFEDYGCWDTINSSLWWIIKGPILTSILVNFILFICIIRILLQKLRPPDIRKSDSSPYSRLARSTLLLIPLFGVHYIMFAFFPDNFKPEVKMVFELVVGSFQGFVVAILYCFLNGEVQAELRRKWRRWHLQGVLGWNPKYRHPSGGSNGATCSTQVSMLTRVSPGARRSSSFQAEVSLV
# Test: Elevation of cAMP, agonist activity on VPAC1
# Assay type: cell-based
# Details: FIG. 3
# Text: The signal is detected using a scintillation counter.
substance,measurement,value
PACAP-27,agonist activity on VPAC1,potent agonist
